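Five compound concentrations were applied to cells in 96-well plates for 48 hours; endpoints were derived by simple linear interpolation of the resulting dose-response curve. GI50 marks 50% less growth. TGI is the concentration that stops growth completely.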
Columns and labels:
Experiment in all cases: NCI-60 cell line screen, 48 h
M14 melanoma = test system: M14 melanoma
UO-31 renal = test system: UO-31 renal
OVCAR-5 ovarian = test system: OVCAR-5 ovarian
CAKI-1 renal = test system: CAKI-1 renal
TK-10 renal = test system: TK-10 renal
UACC-62 melanoma = test system: UACC-62 melanoma
NCI/ADR-RES ovarian = test system: NCI/ADR-RES ovarian
SNB-19 CNS = test system: SNB-19 CNS
HT29 colon = test system: HT29 colon
SN12C renal = test system: SN12C renal
HOP-92 NSCLC = test system: HOP-92 NSCLC
SK-MEL-2 melanoma = test system: SK-MEL-2 melanoma
DU-145 prostate = test system: DU-145 prostate
SNB-75 CNS = test system: SNB-75 CNS
RPMI-8226 leukemia = test system: RPMI-8226 leukemia
IGROV1 ovarian = test system: IGROV1 ovarian
NCI-H23 lung = test system: NCI-H23 lung
OVCAR-4 ovarian = test system: OVCAR-4 ovarian
HS 578T breast = test system: HS 578T breast
MCF7 breast = test system: MCF7 breast
SK-MEL-28 melanoma = test system: SK-MEL-28 melanoma
SW-620 colon = test system: SW-620 colon
HCC-2998 colon = test system: HCC-2998 colon
SF-268 CNS = test system: SF-268 CNS
NCI-H226 lung = test system: NCI-H226 lung
K-562 leukemia = test system: K-562 leukemia
SF-539 CNS = test system: SF-539 CNS
PC-3 prostate = test system: PC-3 prostate
ACHN renal = test system: ACHN renal
A549 NSCLC = test system: A549 NSCLC
CCRF-CEM leukemia = test system: CCRF-CEM leukemia
MDA-MB-435 = test system: MDA-MB-435
LOX IMVI melanoma = test system: LOX IMVI melanoma
A498 renal = test system: A498 renal
HCT-116 colon = test system: HCT-116 colon
OVCAR-8 ovarian = test system: OVCAR-8 ovarian
UACC-257 melanoma = test system: UACC-257 melanoma
MDA-MB-231 breast = test system: MDA-MB-231 breast
OVCAR-3 ovarian = test system: OVCAR-3 ovarian
T-47D breast = test system: T-47D breast
786-0 renal = test system: 786-0 renal
BT-549 breast = test system: BT-549 breast
KM12 colon = test system: KM12 colon
MALME-3M melanoma = test system: MALME-3M melanoma
SK-MEL-5 melanoma = test system: SK-MEL-5 melanoma
U251 CNS = test system: U251 CNS
SR leukemia = test system: SR leukemia
RXF 393 renal = test system: RXF 393 renal
SF-295 CNS = test system: SF-295 CNS
HL-60(TB) leukemia = test system: HL-60(TB) leukemia
NCI-H522 lung = test system: NCI-H522 lung
MOLT-4 leukemia = test system: MOLT-4 leukemia
SK-OV-3 ovarian = test system: SK-OV-3 ovarian
EKVX NSCLC = test system: EKVX NSCLC
HCT-15 colon = test system: HCT-15 colon
COLO 205 colon = test system: COLO 205 colon
NCI-H460 lung = test system: NCI-H460 lung
HOP-62 NSCLC = test system: HOP-62 NSCLC

O=C(CF)N(O)c1ccc(/C=C/c2ccccc2)cc1
GI50 (M14 melanoma): 3.82 µM
TGI (M14 melanoma): > 100 µM
GI50 (UO-31 renal): 3.58 µM
TGI (UO-31 renal): 26.2 µM
GI50 (OVCAR-5 ovarian): 8.26 µM
TGI (OVCAR-5 ovarian): > 100 µM
GI50 (CAKI-1 renal): 609 nM
TGI (CAKI-1 renal): 2850 nM
GI50 (TK-10 renal): 3.38 µM
TGI (TK-10 renal): 27.5 µM
GI50 (UACC-62 melanoma): 1810 nM
TGI (UACC-62 melanoma): 10.7 µM
GI50 (NCI/ADR-RES ovarian): 2520 nM
TGI (NCI/ADR-RES ovarian): > 100 µM
GI50 (SNB-19 CNS): 8.65 µM
TGI (SNB-19 CNS): > 100 µM
GI50 (HT29 colon): 3.52 µM
TGI (HT29 colon): > 100 µM
GI50 (SN12C renal): 2670 nM
TGI (SN12C renal): > 63.5 µM
GI50 (HOP-92 NSCLC): 3.97 µM
TGI (HOP-92 NSCLC): 35.7 µM
GI50 (SK-MEL-2 melanoma): 27.1 µM
TGI (SK-MEL-2 melanoma): > 100 µM
GI50 (DU-145 prostate): 1480 nM
TGI (DU-145 prostate): 6.96 µM
GI50 (SNB-75 CNS): 3.41 µM
TGI (SNB-75 CNS): 31.9 µM
GI50 (RPMI-8226 leukemia): 21.3 µM
TGI (RPMI-8226 leukemia): > 100 µM
GI50 (IGROV1 ovarian): 2530 nM
TGI (IGROV1 ovarian): 13 µM
GI50 (NCI-H23 lung): 3.39 µM
TGI (NCI-H23 lung): 98.4 µM
GI50 (OVCAR-4 ovarian): 5.49 µM
TGI (OVCAR-4 ovarian): > 66.9 µM
GI50 (HS 578T breast): 24.1 µM
TGI (HS 578T breast): > 91.5 µM
GI50 (MCF7 breast): 304 nM
TGI (MCF7 breast): > 100 µM
GI50 (SK-MEL-28 melanoma): > 40.4 µM
TGI (SK-MEL-28 melanoma): > 100 µM
GI50 (SW-620 colon): 1300 nM
TGI (SW-620 colon): > 100 µM
GI50 (HCC-2998 colon): 1640 nM
TGI (HCC-2998 colon): 7.69 µM
GI50 (SF-268 CNS): 2780 nM
TGI (SF-268 CNS): > 100 µM
GI50 (NCI-H226 lung): 770 nM
TGI (NCI-H226 lung): 3.24 µM
GI50 (K-562 leukemia): 7.92 µM
TGI (K-562 leukemia): > 100 µM
GI50 (SF-539 CNS): 8.17 µM
TGI (SF-539 CNS): 52.9 µM
GI50 (PC-3 prostate): 5.6 µM
TGI (PC-3 prostate): > 100 µM
GI50 (ACHN renal): 736 nM
TGI (ACHN renal): 30 µM
GI50 (A549 NSCLC): 1170 nM
TGI (A549 NSCLC): > 100 µM
GI50 (CCRF-CEM leukemia): 2160 nM
TGI (CCRF-CEM leukemia): > 100 µM
GI50 (MDA-MB-435): 8.48 µM
TGI (MDA-MB-435): > 100 µM
GI50 (LOX IMVI melanoma): 2530 nM
TGI (LOX IMVI melanoma): > 100 µM
GI50 (A498 renal): 694 nM
TGI (A498 renal): 2270 nM
GI50 (HCT-116 colon): 805 nM
TGI (HCT-116 colon): 6.63 µM
GI50 (OVCAR-8 ovarian): 2770 nM
TGI (OVCAR-8 ovarian): > 96.2 µM
GI50 (UACC-257 melanoma): 1670 nM
TGI (UACC-257 melanoma): 5.59 µM
GI50 (MDA-MB-231 breast): 21.8 µM
TGI (MDA-MB-231 breast): > 100 µM
GI50 (OVCAR-3 ovarian): 3.28 µM
TGI (OVCAR-3 ovarian): 19.7 µM
GI50 (T-47D breast): 1060 nM
TGI (T-47D breast): > 34.1 µM
GI50 (786-0 renal): 1980 nM
TGI (786-0 renal): 7.14 µM
GI50 (BT-549 breast): 4.37 µM
TGI (BT-549 breast): > 100 µM
GI50 (KM12 colon): 16.5 µM
TGI (KM12 colon): > 100 µM
GI50 (MALME-3M melanoma): 24.6 µM
TGI (MALME-3M melanoma): > 100 µM
GI50 (SK-MEL-5 melanoma): 14.4 µM
TGI (SK-MEL-5 melanoma): > 100 µM
GI50 (U251 CNS): 1820 nM
TGI (U251 CNS): > 60 µM
GI50 (SR leukemia): 257 nM
TGI (SR leukemia): 4.04 µM
GI50 (RXF 393 renal): 3.13 µM
TGI (RXF 393 renal): 25.1 µM
GI50 (SF-295 CNS): 1740 nM
TGI (SF-295 CNS): 11.4 µM
GI50 (HL-60(TB) leukemia): 605 nM
TGI (HL-60(TB) leukemia): 13.6 µM
GI50 (NCI-H522 lung): 12.8 µM
TGI (NCI-H522 lung): > 100 µM
GI50 (MOLT-4 leukemia): 2720 nM
TGI (MOLT-4 leukemia): > 100 µM
GI50 (SK-OV-3 ovarian): 7.53 µM
TGI (SK-OV-3 ovarian): 32.1 µM
GI50 (EKVX NSCLC): 15.8 µM
TGI (EKVX NSCLC): > 100 µM
GI50 (HCT-15 colon): 13.3 µM
TGI (HCT-15 colon): > 100 µM
GI50 (COLO 205 colon): 5.83 µM
TGI (COLO 205 colon): > 100 µM
GI50 (NCI-H460 lung): 322 nM
TGI (NCI-H460 lung): > 100 µM
GI50 (HOP-62 NSCLC): 5.91 µM
TGI (HOP-62 NSCLC): 32.2 µM

Source: PubChem BioAssay (NCI)
